Measurements from patent US20260232706A1, “1H-PYRAZOLE ANALOGUES AND METHODS AND USES THEREOF” (University of Manitoba, priority 2022, published 2026).
Several values for one entry are separate records, joined by “and”; a condition that tells them apart may be missing. Equal entries are not always repeated. Entries after “also recorded” stand apart in the source; their conditions may differ.

Experiments:
WG37R mice = test: 120-day chronic toxicity assessment in WG37R mice; type: in vivo; details: 10 mg/kg/day IP daily for 120 days
Protocol: The WG37R mice were randomly assigned to 2 groups: For the second set of the experiment, a total of 6 animals per group (3 male and 3 female) were used in the study. Group 3: Sham treatment 1 (1:20 DMSO/PBS) and Group 4: NS-1-2 (10 mg/kg body weight). According to requirement of acute toxicity study, 6-10 animals should be used to evaluate the effect of a substance. However, as the new analogues are structurally similar to Edaravone, having a single-dose safety profile of 450 mg/kg, the mortality of the Edaravone analogues at a dose of 10 mg/kg body weight/day was not expected. Considering the above facts, for the present acute study, the proposed minimum number of animals was 6 per group. Morphological alterations, histological changes, and mean body weight assessments for whole set of animals, for both the WG37R control groups (N=5; 1:20, DMSO:PBS) and WG37R treated groups (N=6; NS-1-2; 10 mg/kg bodyweight) were assessed during the 120-day chronic toxicity assessment, by giving daily of 120 IP injection to the mouse at 3 months of age. Only one male mice from group 3 (control) was terminated unexpectedly, and was likely due to an accidental error in injection (discussed with Central Animal Care Services, veterinarians and staff). IP injections may be difficult because of the aggressiveness of mice (particularly the male mice, during physical restraint). […]

[1] = system: SOD1-G37R mouse model of ALS, Het G37R (Line 42) mice; test: Therapeutic efficacy in the SOD1-G37R mouse model of ALS; type: in vivo
Protocol: Methods: B^5-EDR analogues were synthesized as described in Example 1. The specific methodology employed for this Example is described below. All the statistical analyses were carried out by using GraphPad Prism […] software (version 9.5.1 (733)), (GraphPad Software, La Jolla, CA). Statistical significance was performed using a two-tailed unpaired t-test used for body weight assessment, disease onset, survival, and weight loss comparisons. Kaplan-Meier survival analysis and log rank test was also used for survival analysis. For these in vivo studies, disease onset or symptom onset was defined by two criteria. The first criteria is defined by the loss of 10% body weight based on the highest recorded weight during the age of the mice after pre symptom onset treatment study. The loss of 10% body weight is often accompanied by appearance of symptoms of muscle weakness and the second criteria of disease onset, which is retrospectively defined as the age at which the mouse reaches peak weight. Mice were assessed and monitored daily by trained staff for weight and muscle weakness starting at 90 days of age i.e., well before clinical onset of disease. According to the common consensus among ALS scientific community, the disease onset is defined as a time when mice have reached their peak body weight well before the denervation induced muscle atrophy and weight loss.
Transgenic mice carrying human G37R mutant SOD1 [B6.Cg Tg(SOD1*G37R)42Dpr/J] were obtained from the Jackson Laboratory (Bar Harbor, ME, USA). These mice were crossed with female mice with a C57BL/6 background for at least four generations. Colonies are maintained in the Central Animal Care Services (CACS), University of Manitoba. The mice were used in accordance with the Guide of Care and Use of Experimental Animals of the Canadian Council on Animal Care. Transgenic offspring were genotyped by PCR of DNA obtained from ear biopsies, see (ia) below, using a protocol provided by the Jackson Laboratory.
For these experiments, a set of experiments was carried out having two groups of mice: • Group 1: Sham treatment (1:20 DMSO/PBS); and • Group 2: NS-1-2 treatment (1:20 DMSO/PBS) (10 mg/kg body weight/day). For these experiments, age matched Het G37R (Line 42) mice were administered vehicle (1:20, DMSO:PBS) or treatment (NS-1-2; 10 mg/kg bodyweight), daily, starting at the age of 90 days until the age of 210 days, and monitored daily for several significant humane point indicators including, a) Mouse unable to right itself in 15 sec b) 25% loss of weight on the highest recorded weight c) Full paralysis of one or more hind limbs d) Loss of bladder functions e) Crusty eyes/loss of vision and/or f) Penile prolapse.
For weight loss experiments, weight loss was based on highest recorded weight (humane end point).
For disease onset experiments, symptom onset was assessed (i.e. loss of 10% body weight based on the highest recorded weight with muscle weakness and time to peak body weight (days), was assessed and monitored daily by trained staff starting at 90 days of age i.e., well before pre-symptom onset of disease also, monitored daily for several significant humane point indicators including a) Mouse unable to right itself in 15 sec b) 25% loss of weight on the highest recorded weight c) Full paralysis of one or more hind limbs d) Loss of bladder functions e) Crusty eyes/loss of vision f) Penile prolapse. One tailed (unpaired t test) was performed to analyse age to reach (10%) loss of body weight.

[2] = individual animals, NS-1-2 treatment (N = 10)

Structure (SMILES): Cc1cc(B2OC(C)(C)C(C)(C)O2)n(-c2ccccc2)n1 [NS-1-2, 3-methyl-5-(4,4,5,5-tetramethyl-1,3,2-dioxaborolan-2-yl)-1-phenyl1H-pyrazole]
- clinical signs of toxicity compared to vehicle-treated mice (WG37R mice): no clinical signs of toxicity
- tolerability (WG37R mice): seemingly tolerated
- prolongation of survival age or life span versus control (Kaplan-Meier) ([1]; 10 mg/kg/day IP from age 90 to 210 days): 14.5 days
- mean age of survival (humane end point) ([1]; 10 mg/kg/day IP from age 90 to 210 days, n=10, FIG. 14): 196.7 days
- median survival (Kaplan-Meier) ([1]; 10 mg/kg/day IP from age 90 to 210 days, n=10, FIG. 15): 199.5 days
- delay of disease onset versus control (Kaplan-Meier) ([1]; age to reach peak body weight): 20 days
- percentage mean weight loss (humane end point) ([1]; based on highest recorded weight, n=10, FIG. 16): 17.55%
- Age to reach 10% loss of body weight based on highest recorded weight with muscle weakness [1, 2]: 199 days and 171 days and 184 days and 180 days and 193 days and 195 days (2×) and 203 days and 196 days and 165 days
- Disease Onset: Age to reach peak body weight [1, 2]: 143 days (2×) and 156 days and 147 days and 154 days and 164 days and 163 days and 188 days and 148 days and 144 days
- Treatment G37R (Survival Days) (Humane End Point) [1, 2]: 201 Days (2×) and 205 Days and 189 Days and 195 Days and 198 Days and 203 Days and 197 Days and 204 Days and 174 Days
- 25% Loss of Weight Based on Highest Recorded Weight (Humane End Point) ([1]; individual animals, above or below the 25% criterion): Weight Loss <25%
- Weight Loss (%) ([1]; individual animals, humane end point, based on highest recorded weight): Weight Loss (%): 17.056; also recorded: Weight Loss (%): 18.91; also recorded: Weight Loss (%): 19.67; also recorded: Weight Loss (%): 20; also recorded: Weight Loss (%): 15.68; also recorded: Weight Loss (%): 18.543; also recorded: Weight Loss (%): 10.122; also recorded: Weight Loss (%): 13.66; also recorded: Weight Loss (%): 18.548; also recorded: Weight Loss (%): 23.34
- difference in survival versus control ([1]; mean, 10 mg/kg/day IP from age 90 to 210 days): 13.3 days
- delay of disease onset versus control (10% weight loss) ([1]; mouse, in vivo): around 23.2 days
- delay of disease onset versus control (time to peak body weight, mean) ([1]; mouse, in vivo): around 23.6 days
- disease onset: mean age (loss of 10% body weight with muscle weakness) ([1]; n=10, FIG. 17): 188.1 days
- disease onset: mean age (time to peak body weight) ([1]; n=10, FIG. 18): 155 days
- median age to reach peak body weight (Kaplan-Meier, printed as median survival) ([1]; n=10, FIG. 19): 151 days
